Results taken from PubChem BioAssay (NCI).
Where “and” joins values, the source holds several entries; their conditions need not be identical. Equal entries are not always repeated.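 Grown in 96-well plates, cells were treated for 48 hours with each compound at five concentrations. Insufficient inhibition: endpoint recorded as highest concentration tested. GI50 = concentration required for 50% inhibition of growth. TGI marks complete inhibition of growth.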

What was measured:
Test in all cases: growth of human tumour cells (NCI), 48 h
[1] = system: DMS 114 small cell lung
[2] = system: HL-60(TB) leukemia
[3] = system: DMS 273 small cell lung
[4] = system: COLO 205 colon
[5] = system: UACC-62 melanoma
[6] = system: HT29 colon
[7] = system: ACHN renal
[8] = system: KM20L2 colon
[9] = system: OVCAR-5 ovarian
[10] = system: OVCAR-4 ovarian
[11] = system: HOP-18 NSCLC
[12] = system: DU-145 prostate

Compound	TGI [1] [µM]	TGI [2] [µM]	TGI [3] [µM]	TGI [4]	TGI [5]	TGI [6]	TGI [7]	TGI [8] [µM]	TGI [9]	TGI [10]	TGI [11] [µM]	GI50 [2] [µM]	GI50 [4]	GI50 [5]	GI50 [6]	GI50 [7]	GI50 [9] [µM]	GI50 [12] [µM]	TGI [12]	GI50 [10] [µM]
CC(=O)O[C@H]1CC[C@@]2(C)C(=C/C(=N\[N+](=O)[O-])[C@H]3C4CCC([C@H](C)CCCC(C)C)[C@@]4(C)CCC32)C1 (stereo partly drawn)	> 100	> 100	> 100	> 100 µM	> 100 µM	> 100 µM	> 100 µM	> 100	> 100 µM	> 100 µM	–	–	–	–	–	–	–	–	–	–
NC(=O)N/N=C(\CCC(=O)N(Cc1ccccc1)Cc1ccccc1)CC(=O)c1ccc(F)cc1	> 100	> 100	–	> 100 µM	> 100 µM	> 100 µM	> 100 µM	> 100	> 100 µM	> 100 µM	> 100	–	–	–	–	–	–	–	–	–
CC(=O)O/N=C/c1cc2c(cc1Br)OCO2	> 349	> 349	> 349	> 349 µM	> 349 µM	> 349 µM	> 349 µM	> 349	> 349 µM	–	–	–	–	–	–	–	–	–	–	–
CCOC(=O)C1Oc2ccc([N+](=O)[O-])cc2C1(C)O (stereo not drawn)	> 100	> 100	> 100	> 100 µM	> 100 µM	> 100 µM	> 100 µM	–	> 100 µM	> 100 µM	–	–	–	–	–	–	–	–	–	–
COc1ccc(/C(C#N)=C(/N)SCc2ccccc2Cl)cc1	37.1	63.4	–	41.6 µM	25.4 µM	33.3 µM	> 10 µM	34.3	32.9 µM	–	38.2	–	–	–	–	–	–	–	–	–
O=c1[nH]c2c(c3ccccc13)CCc1ccccc1-2	> 100	–	> 100	> 100 µM	–	> 100 µM	> 100 µM	> 100	> 100 µM	> 100 µM	–	–	–	–	–	–	–	–	–	–
NNC(=S)N/N=C(/C(=O)Nc1ccc([N+](=O)[O-])cc1)c1nc2ccc([N+](=O)[O-])cc2[nH]c1=O	> 100	> 100	–	> 100 µM	> 100 µM	> 100 µM	> 100 µM	–	> 100 µM	> 100 µM	> 100	–	–	–	–	–	–	–	–	–
O=C1NN=CN2C(=O)CCC12 (stereo not drawn)	> 100	> 100	> 100	> 100 µM	> 100 µM	–	> 100 µM	> 100	–	> 100 µM	–	–	–	–	–	–	–	–	–	–
O=C(O)c1cc(=O)c2cc(C(=O)c3cccs3)c(Cl)c(Cl)c2o1	–	> 100	–	–	> 100 µM	> 100 µM	> 100 µM	> 100	> 100 µM	> 100 µM	–	–	–	–	–	–	–	–	–	–
Oc1ccc(O)c2c1C1(Cl)C(Cl)=C(Cl)C2(Cl)C1(Cl)Cl	–	12.1	–	25.4 µM	19.5 µM	17.9 µM	21.3 µM	–	33.8 µM	> 100 µM	–	3.19	11.6 µM	4.96 µM	6.44 µM	4.43 µM	12.6	3.45	12.9 µM	8.32
COc1cc(NC(=O)c2cc(O)c(C/C=C(\C)CCC=C(C)C)c(O)c2)cc2c1O[C@]1(C)CC[C@@H](O)C(C)(C)[C@H]1C2	–	4.88	–	6.72 µM	3.37 µM	5.79 µM	10.1 µM	–	19.2 µM	12.7 µM	–	0.549	2.22 µM	1.42 µM	1.62 µM	2.21 µM	4.09	2.25	12.2 µM	2.57
Nc1nc(Cl)nc2c1ncn2[C@@H]1O[C@H](COS(N)(=O)=O)[C@@H](O)[C@H]1O	–	0.0224	–	0.0489 µM and 0.0543 µM	0.044 µM and 0.0561 µM	0.0678 µM and 0.0949 µM	0.0778 µM and 0.0657 µM	–	0.0401 µM and 0.0385 µM	0.00929 µM and 0.0324 µM	–	–	0.0202 µM and 0.0239 µM	0.019 µM and 0.0217 µM	0.0254 µM and 0.03 µM	0.0257 µM and 0.0252 µM	0.00425	0.00413	0.0349 µM and 0.0301 µM	0.00303
Cc1ccc(-c2c3c(N)c4c(nc3nc3c2c(C)nn3-c2ccccc2)CCC4)cc1	–	4.67	–	3.6 µM	35.7 µM	10.9 µM	8.38 µM	–	13.1 µM	11.9 µM	–	2.07	1.69 µM	18.6 µM	5.07 µM	3.16 µM	5.69	2.21	4.68 µM	2.98
O=C1OC(OC/C(Br)=C(/Br)COC2OC(=O)C(Cl)=C2Cl)C(Cl)=C1Cl (stereo not drawn)	–	4.33	–	10.4 µM	29.1 µM	28.4 µM	24.8 µM	–	33 µM	20.1 µM	–	–	–	–	–	–	–	–	30.6 µM	–
Cc1ccccc1NC(=O)c1cc2ccccc2cc1O	–	7.34	–	28.6 µM	> 100 µM	> 100 µM	10.4 µM	–	85.6 µM	> 100 µM	–	2.5	13.8 µM	3.48 µM	7.54 µM	3.17 µM	5.88	4.03	> 100 µM	3.44
O=C1NC(SCc2ccc(F)cc2)=N/C1=C/c1cccc(OCc2ccc(Cl)cc2)c1	–	> 100	–	> 100 µM	> 100 µM	> 100 µM	3.87 µM	–	> 100 µM	4.85 µM	–	> 100	> 100 µM	> 100 µM	> 100 µM	1.93 µM	> 100	> 100	> 100 µM	2.07
c1ccc(/C(=N\Nc2ccc3ccccc3n2)c2ccccn2)cc1	–	0.775	–	5.08 µM	7.41 µM	26.1 µM	8.78 µM	–	43 µM	> 100 µM	–	0.235	0.407 µM	0.549 µM	0.608 µM	0.49 µM	0.81	0.881	16.8 µM	0.418
O=C(CC(=O)C1CCOC1=O)C(=O)Nc1ccc(Cl)cc1 (stereo not drawn)	> 100	> 100	> 100	> 100 µM	> 100 µM	> 100 µM	> 100 µM	> 100	> 100 µM	> 100 µM	–	–	–	–	–	–	–	–	–	–
O=c1[nH]cnc2c1ncn2CCCCO	> 100	> 100	–	> 100 µM	> 100 µM	> 100 µM	> 100 µM	> 100	> 100 µM	> 100 µM	> 100	–	–	–	–	–	–	–	–	–
Cc1cccc(N=C2NC(=O)C(CC(=O)Nc3ccccc3Cl)S2)c1 (stereo not drawn)	> 100	> 100	> 100	–	> 100 µM	> 100 µM	> 100 µM	> 100	> 100 µM	> 100 µM	–	–	–	–	–	–	–	–	–	–
CC(C)=CCc1cc(C2COc3cc4c(c(O)c3C2=O)C=CC(C)(C)O4)c(O)cc1O (stereo not drawn)	–	31.1	–	49.9 µM	32.9 µM	31.6 µM	32.4 µM	–	29.7 µM	24.2 µM	–	–	–	–	–	–	–	–	27.9 µM	–
Nc1cc(-c2ccccc2)n(C(=O)Nc2ccc(Oc3ccccc3)cc2)n1	–	> 100	–	> 100 µM	> 100 µM	> 100 µM	> 100 µM	–	> 100 µM	27 µM	–	47.8	> 100 µM	> 100 µM	19.1 µM	34.9 µM	96.3	> 100	> 100 µM	2.91
O=C(Cn1c2ccccc2c2ccncc21)N/N=C\c1ccc2ccccc2c1	–	> 100	–	> 100 µM	42.9 µM	50.3 µM	48.5 µM	–	> 100 µM	80.8 µM	–	29	25.8 µM	18 µM	21.7 µM	19.3 µM	36.5	23.9	> 100 µM	15.4
COC1C(O)C(C)OC(O[C@@H]2C[C@H]3CC[C@@H]4[C@H](CC[C@]5(C)[C@@H](C6=CC(=O)OC6)CC[C@]45O)[C@@]3(C)[C@H](O)C2)C1O (stereo partly drawn)	–	0.145	–	1.05 µM	0.647 µM	0.472 µM	0.615 µM	–	0.365 µM	0.0379 µM	–	–	–	–	–	–	–	–	0.0812 µM	–
Cc1cn(Cc2ccccc2CCl)c(=O)n(Cc2ccccc2CCl)c1=O	–	3.24	–	3.54 µM	3.16 µM	5.69 µM	3.06 µM	–	9.69 µM	4.83 µM	–	1.37	1.53 µM	1.67 µM	2.04 µM	1.66 µM	2.61	1.93	3.68 µM	1.98
CN(C)N=Nc1nn(C(=O)Nc2ccc(Cc3ccccc3)cc2)c2ccccc12	–	> 100	–	2.45 µM	1.65 µM	> 100 µM	> 100 µM	–	> 100 µM	> 100 µM	–	25.2	0.77 µM	0.0385 µM	3.34 µM	0.282 µM	> 21.6	> 100	> 100 µM	–
CCCCCCCCCCCCCCCCCc1nnc(N)o1	–	> 100	> 100	> 100 µM	> 100 µM	> 100 µM	> 100 µM	> 100	> 100 µM	> 100 µM	–	–	–	–	–	–	–	–	–	–
CC1=NN(c2ccccc2)C(=O)C1N=Nc1ccc(S(N)(=O)=O)cc1 (stereo not drawn)	–	> 100	–	> 100 µM	> 100 µM	> 100 µM	> 100 µM	–	> 100 µM	> 100 µM	–	–	–	–	–	–	–	–	> 100 µM	–
